Laboratory results published in ChEMBL document CHEMBL4118143, “Discovery of dimethyl pent-4-ynoic acid derivatives, as potent and orally bioavailable DGAT1 inhibitors that suppress body weight in diet-induced mouse obesity model” (Bioorg Med Chem Lett, 2018).
In brackets after ≈: the same amount, converted by molar mass. Activity calls are given as the source filed them. The calls are words filed in the database; no cut-off is given here.

Tests used:
[1] = Clearance in Sprague-Dawley rat at 0.5 mg/kg, iv; type: ADME, organism-based; details: in vivo
[2] = Volume of distribution at steady state in Sprague-Dawley rat at 0.5 mg/kg, iv; type: ADME, organism-based; details: in vivo, read-out: Vdss
[3] = Cmax in Sprague-Dawley rat at 10 mg/kg, po; type: ADME, organism-based; parameters: dose 10 mg/kg, route oral; details: in vivo
[4] = Tmax in Sprague-Dawley rat at 10 mg/kg, po; type: ADME, organism-based; details: in vivo
[5] = AUC in Sprague-Dawley rat at 10 mg/kg, po; type: ADME, organism-based; details: in vivo
[6] = Oral bioavailability in Sprague-Dawley rat at 10 mg/kg; type: ADME, organism-based; details: in vivo
[7] = biological target: T1, Diacylglycerol O-acyltransferase 1 (Mus musculus, UniProt Q9Z2A7); experiment: Inhibition of mouse DGAT1 expressed in insect cell membranes using diacylglycerol/[14C]-oleoyl-CoA as substrate preincubated for 10 mins followed by [14C]-oleoyl-CoA addition measured after 15 mins by scintillation counting method
T1 sequence (Q9Z2A7 whole entry): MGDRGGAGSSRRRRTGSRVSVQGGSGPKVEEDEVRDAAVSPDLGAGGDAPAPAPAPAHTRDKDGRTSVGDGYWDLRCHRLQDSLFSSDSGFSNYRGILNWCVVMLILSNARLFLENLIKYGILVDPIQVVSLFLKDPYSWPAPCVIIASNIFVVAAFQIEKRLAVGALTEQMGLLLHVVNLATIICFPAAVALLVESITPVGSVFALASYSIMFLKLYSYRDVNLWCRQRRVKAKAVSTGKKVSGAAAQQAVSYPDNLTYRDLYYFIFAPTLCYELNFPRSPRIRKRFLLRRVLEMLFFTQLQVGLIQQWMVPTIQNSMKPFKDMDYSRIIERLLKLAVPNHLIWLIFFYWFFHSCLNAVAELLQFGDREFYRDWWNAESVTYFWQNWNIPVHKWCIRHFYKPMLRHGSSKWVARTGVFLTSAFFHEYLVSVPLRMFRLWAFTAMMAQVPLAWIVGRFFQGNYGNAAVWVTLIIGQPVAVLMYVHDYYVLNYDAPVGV

[8] = biological target: T2, Diacylglycerol O-acyltransferase 1 (Homo sapiens, UniProt O75907); experiment: Inhibition of human DGAT1 expressed in insect cell membranes using diacylglycerol/[14C]-oleoyl-CoA as substrate preincubated for 10 mins followed by [14C]-oleoyl-CoA addition measured after 15 mins by scintillation counting method
T2 sequence (O75907 whole entry): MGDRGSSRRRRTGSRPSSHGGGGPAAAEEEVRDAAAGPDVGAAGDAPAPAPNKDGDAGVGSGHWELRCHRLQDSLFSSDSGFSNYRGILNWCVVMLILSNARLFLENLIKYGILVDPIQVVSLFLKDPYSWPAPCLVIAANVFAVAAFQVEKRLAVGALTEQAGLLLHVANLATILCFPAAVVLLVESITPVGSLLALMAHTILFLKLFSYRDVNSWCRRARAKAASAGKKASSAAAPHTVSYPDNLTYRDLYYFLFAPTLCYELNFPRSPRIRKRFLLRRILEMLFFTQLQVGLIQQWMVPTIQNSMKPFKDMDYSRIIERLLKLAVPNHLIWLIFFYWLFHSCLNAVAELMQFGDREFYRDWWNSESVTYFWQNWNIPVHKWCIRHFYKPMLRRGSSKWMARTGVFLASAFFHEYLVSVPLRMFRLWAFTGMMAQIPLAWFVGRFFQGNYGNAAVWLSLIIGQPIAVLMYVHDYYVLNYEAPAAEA

[9] = biological target: T3, Diacylglycerol O-acyltransferase 2 (Homo sapiens, UniProt Q96PD7); experiment: Inhibition of human DGAT2 expressed in insect cell membranes using diacylglycerol/[14C]-oleoyl-CoA as substrate preincubated for 10 mins followed by [14C]-oleoyl-CoA addition measured after 15 mins by scintillation counting method
T3 sequence (Q96PD7 whole entry): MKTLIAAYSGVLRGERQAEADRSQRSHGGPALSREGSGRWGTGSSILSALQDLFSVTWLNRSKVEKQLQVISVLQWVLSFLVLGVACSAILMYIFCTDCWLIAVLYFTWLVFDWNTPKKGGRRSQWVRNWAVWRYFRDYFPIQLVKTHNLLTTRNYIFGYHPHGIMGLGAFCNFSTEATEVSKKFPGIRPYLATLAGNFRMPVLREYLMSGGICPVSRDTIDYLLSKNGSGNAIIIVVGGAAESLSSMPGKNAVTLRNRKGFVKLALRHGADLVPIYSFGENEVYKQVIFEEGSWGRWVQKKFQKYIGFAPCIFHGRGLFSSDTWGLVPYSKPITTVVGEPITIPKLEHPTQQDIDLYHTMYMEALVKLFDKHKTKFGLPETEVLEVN

[10] = biological target: T2, Diacylglycerol O-acyltransferase 1; experiment: Inhibition of DGAT1 in human HEK293 cells using [13C18]oleic acid as substrate assessed as decrease in triacylglycerol synthesis preincubated for 15 mins followed by [13C18]oleic acid addition measured after 2 hrs by LC/MS/MS analysis; type: cell-based
[11] = Solubility of the compound at pH 7.4; type: physicochemical; details: buffer
[12] = Protein binding in human plasma; type: ADME, cell-free; details: read-out: PPB (converted)
[13] = Intrinsic clearance in human liver microsomes; type: ADME, microsome; details: read-out: CLH
[14] = Metabolic stability in human liver microsomes assessed as parent compound remaining measured at 60 mins; type: ADME, microsome; details: read-out: Stability
[15] = Intrinsic clearance in mouse liver microsomes; type: ADME, microsome; details: read-out: CLH
[16] = Metabolic stability in mouse liver microsomes assessed as parent compound remaining measured at 60 mins; type: ADME, microsome; details: read-out: Stability
Cytochrome P450 1A2 = biological target: T4, Cytochrome P450 1A2 (Homo sapiens, UniProt P05177); experiment: Inhibition of CYP1A2 (unknown origin); type: ADME
T4 sequence (P05177 whole entry): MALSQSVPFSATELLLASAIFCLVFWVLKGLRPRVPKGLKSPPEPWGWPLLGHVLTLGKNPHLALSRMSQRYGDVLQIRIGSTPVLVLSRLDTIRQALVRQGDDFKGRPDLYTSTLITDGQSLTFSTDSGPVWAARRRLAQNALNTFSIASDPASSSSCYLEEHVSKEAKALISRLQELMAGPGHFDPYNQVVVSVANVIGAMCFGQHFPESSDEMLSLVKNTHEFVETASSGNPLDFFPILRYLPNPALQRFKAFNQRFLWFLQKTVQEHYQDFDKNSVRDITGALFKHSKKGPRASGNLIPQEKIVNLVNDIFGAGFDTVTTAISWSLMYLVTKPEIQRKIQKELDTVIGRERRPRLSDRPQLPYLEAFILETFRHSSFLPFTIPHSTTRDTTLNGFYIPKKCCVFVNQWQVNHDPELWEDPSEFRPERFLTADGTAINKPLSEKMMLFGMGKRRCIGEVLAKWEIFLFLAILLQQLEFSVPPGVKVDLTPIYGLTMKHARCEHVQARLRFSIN

Cytochrome P450 2C9 = Cytochrome P450 2C9 (Homo sapiens, UniProt P11712); experiment: Inhibition of CYP2C9 (unknown origin); type: ADME
Chain of Cytochrome P450 2C9 (P11712 whole entry): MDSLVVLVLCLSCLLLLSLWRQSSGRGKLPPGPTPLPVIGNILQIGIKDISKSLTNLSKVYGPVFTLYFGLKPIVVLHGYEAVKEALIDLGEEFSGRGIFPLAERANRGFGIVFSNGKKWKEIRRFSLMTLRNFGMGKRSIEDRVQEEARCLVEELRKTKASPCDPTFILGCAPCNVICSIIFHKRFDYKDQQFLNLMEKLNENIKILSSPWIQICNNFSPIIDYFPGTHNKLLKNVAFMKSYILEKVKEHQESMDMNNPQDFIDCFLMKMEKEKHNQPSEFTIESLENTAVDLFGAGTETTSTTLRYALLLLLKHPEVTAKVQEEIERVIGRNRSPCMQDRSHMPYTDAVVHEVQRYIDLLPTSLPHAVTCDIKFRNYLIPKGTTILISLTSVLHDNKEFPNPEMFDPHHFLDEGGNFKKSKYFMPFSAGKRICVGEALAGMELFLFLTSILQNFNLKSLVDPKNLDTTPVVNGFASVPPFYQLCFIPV

Cytochrome P450 2C19 = Cytochrome P450 2C19 (Homo sapiens, UniProt P33261); experiment: Inhibition of CYP2C19 (unknown origin); type: ADME
Chain of Cytochrome P450 2C19 (P33261 whole entry): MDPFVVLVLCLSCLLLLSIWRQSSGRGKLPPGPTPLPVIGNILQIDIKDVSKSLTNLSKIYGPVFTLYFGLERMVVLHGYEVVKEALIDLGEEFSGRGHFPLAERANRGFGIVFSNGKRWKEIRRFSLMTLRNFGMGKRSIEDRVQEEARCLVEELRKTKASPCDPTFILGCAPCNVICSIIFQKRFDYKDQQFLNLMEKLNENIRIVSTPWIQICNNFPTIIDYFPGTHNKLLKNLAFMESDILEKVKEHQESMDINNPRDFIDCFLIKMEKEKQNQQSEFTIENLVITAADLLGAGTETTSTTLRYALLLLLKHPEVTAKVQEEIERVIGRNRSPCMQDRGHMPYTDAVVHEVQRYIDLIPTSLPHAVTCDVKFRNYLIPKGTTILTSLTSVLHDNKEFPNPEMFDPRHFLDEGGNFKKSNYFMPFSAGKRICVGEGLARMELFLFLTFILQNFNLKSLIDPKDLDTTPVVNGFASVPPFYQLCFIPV

Cytochrome P450 2D6 = Cytochrome P450 2D6 (Homo sapiens, UniProt P10635); experiment: Inhibition of CYP2D6 (unknown origin); type: ADME
Chain of Cytochrome P450 2D6 (P10635 whole entry): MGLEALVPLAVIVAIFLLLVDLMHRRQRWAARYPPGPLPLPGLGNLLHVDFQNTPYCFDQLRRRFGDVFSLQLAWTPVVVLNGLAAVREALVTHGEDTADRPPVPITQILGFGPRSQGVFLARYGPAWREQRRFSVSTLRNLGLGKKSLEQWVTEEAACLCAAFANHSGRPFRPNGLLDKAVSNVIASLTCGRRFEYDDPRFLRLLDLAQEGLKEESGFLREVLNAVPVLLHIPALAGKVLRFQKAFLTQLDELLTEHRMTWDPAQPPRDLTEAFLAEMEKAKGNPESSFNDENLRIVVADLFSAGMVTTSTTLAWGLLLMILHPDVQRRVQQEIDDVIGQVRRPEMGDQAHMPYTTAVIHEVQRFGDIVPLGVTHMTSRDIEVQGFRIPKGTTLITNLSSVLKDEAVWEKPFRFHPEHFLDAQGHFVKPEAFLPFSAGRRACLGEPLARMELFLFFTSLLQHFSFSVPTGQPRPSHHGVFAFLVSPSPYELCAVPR

Cytochrome P450 3A4 = Cytochrome P450 3A4 (Homo sapiens, UniProt P08684); experiment: Inhibition of CYP3A4 (unknown origin); type: ADME
Chain of Cytochrome P450 3A4 (P08684 whole entry): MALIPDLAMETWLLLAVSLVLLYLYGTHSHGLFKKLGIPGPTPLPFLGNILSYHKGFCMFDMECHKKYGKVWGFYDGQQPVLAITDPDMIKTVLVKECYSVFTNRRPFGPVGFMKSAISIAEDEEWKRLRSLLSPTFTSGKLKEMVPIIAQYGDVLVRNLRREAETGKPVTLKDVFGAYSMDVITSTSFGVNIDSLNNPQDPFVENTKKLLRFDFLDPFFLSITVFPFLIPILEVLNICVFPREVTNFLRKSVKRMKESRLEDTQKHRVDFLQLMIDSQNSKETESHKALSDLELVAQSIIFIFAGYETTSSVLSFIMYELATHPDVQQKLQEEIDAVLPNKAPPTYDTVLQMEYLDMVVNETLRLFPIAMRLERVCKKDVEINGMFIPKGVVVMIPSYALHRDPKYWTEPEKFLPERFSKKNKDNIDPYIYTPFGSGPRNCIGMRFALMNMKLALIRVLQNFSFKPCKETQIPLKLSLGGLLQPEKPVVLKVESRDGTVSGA

[17] = Clearance in CD1 mouse at 0.5 mg/kg, iv; type: ADME, organism-based; details: in vivo
[18] = Volume of distribution at steady state in CD1 mouse at 0.5 mg/kg, iv; type: ADME, organism-based; details: in vivo, read-out: Vdss
[19] = Cmax in CD1 mouse at 10 mg/kg, po; type: ADME, organism-based; parameters: dose 10 mg/kg, route oral; details: in vivo
[20] = Tmax in CD1 mouse at 10 mg/kg, po; type: ADME, organism-based; details: in vivo
[21] = AUC in CD1 mouse at 10 mg/kg, po; type: ADME, organism-based; details: in vivo
[22] = Oral bioavailability in CD1 mouse at 10 mg/kg; type: ADME, organism-based; details: in vivo
Mus musculus [23] = experiment: Inhibition of corn oil-induced plasma triacylglycerol excursion in CD1 mouse at 0.3 to 1 mg/kg administered via oral gavage 30 mins prior to corn oil challenge measured at 2 hrs by lipid tolerance test; type: functional, organism-based
Mus musculus [24] = experiment: Antiobesity activity in diet-induced obesity C57BL/6 mouse model assessed as reduction in body weight at 10 mg/kg administered via oral gavage as bid for 7 days; type: functional, organism-based
Mus musculus [25] = experiment: Antiobesity activity in diet-induced obesity C57BL/6 mouse model assessed as reduction in cumulative food intake at 10 mg/kg administered via oral gavage as bid for 7 days relative to vehicle-treated control; type: functional; parameters: scale not given: the % may be the effect or the level left
Mus musculus [26] = experiment: Hepatotoxicity in diet-induced obesity C57BL/6 mouse model at 10 mg/kg administered via oral gavage as bid for 7 days; type: toxicity, organism-based; details: in vivo, 168 h

CC(C)(C#Cc1ccc(N2CCOc3ncnc(N)c3C2=O)cc1)CC(=O)O
clearance [1]: 14.8 mL/min/kg | Vd [2]: 1.06 L/kg | Cmax [3]: 2160 ng/mL | Tmax [4]: 30 min | AUC [5]: 4100 ng·h/mL | bioavailability [6]: 42%

CC(C)(C#Cc1c(Cl)cc(N2CCOc3ncnc(N)c3C2=O)cc1Cl)CC(=O)O
IC50 [7]: 10 nM

CCc1cc(N2CCOc3ncnc(N)c3C2=O)cc(CC)c1C#CC(C)(C)CC(=O)O
IC50 [7]: 12 nM

CCc1cc(N2CCOc3ncnc(N)c3C2=O)cc(C)c1C#CC(C)(C)CC(=O)O
IC50 [7]: 12 nM

Cc1cc(N2CCOc3ncnc(N)c3C2=O)cc(Cl)c1C#CC(C)(C)CC(=O)O
IC50 [7]: 14 nM

Cc1cc(N2CCOc3ncnc(N)c3C2=O)cc(F)c1C#CC(C)(C)CC(=O)O
IC50 [7]: 11 nM

CC(C)(C#Cc1ccc(N2CCOc3ncnc(N)c3C2=O)cc1OC(F)(F)F)CC(=O)O
IC50 [7]: 92 nM

COc1cc(N2CCOc3ncnc(N)c3C2=O)cc(C)c1C#CC(C)(C)CC(=O)O
IC50 [7]: 96 nM

COc1cc(N2CCOc3ncnc(N)c3C2=O)ccc1C#CC(C)(C)CC(=O)O
IC50 [7]: 728 nM

Cc1cc(N2CCOc3ncnc(N)c3C2=O)cc(C)c1C#CC(C)(C)CC(=O)O
IC50 [8]: 21 to 28 nM | IC50 [7]: 12 nM | IC50 [9]: > 50000 nM | EC50 [10]: 26 nM | solubility [11]: 110 µM (≈ 44.9 µg/mL) | fraction unbound [12]: 0.139 | CLint scaled [13]: < 9.5 mL/min/kg | remaining at 1 h [14]: 97.6% | CLint scaled [15]: < 38 mL/min/kg | remaining at 1 h [16]: 97.9% | IC50 (Cytochrome P450 1A2): 27600 nM | IC50 (Cytochrome P450 2C9): > 100000 nM | IC50 (Cytochrome P450 2C19): 29700 nM | IC50 (Cytochrome P450 2D6): 27200 nM | IC50 (Cytochrome P450 3A4): 45500 nM | clearance [1]: 4.76 mL/min/kg | Vd [2]: 1.12 L/kg | Cmax [3]: 8700 ng/mL | Tmax [4]: 30 min | AUC [5]: 21000 ng·h/mL | bioavailability [6]: 70% | clearance [17]: 39.3 mL/min/kg | Vd [18]: 2.44 L/kg | Cmax [19]: 521 ng/mL | Tmax [20]: 30 min | AUC [21]: 1250 ng·h/mL | bioavailability [22]: 31% | inhibition (Mus musculus [23]): Active | Activity (Mus musculus [24]): Active | Activity (Mus musculus [25]): 11% | Activity (Mus musculus [26]): Non-Toxic

CCc1cc(N2CCOc3ncnc(N)c3C2=O)ccc1C#CC(C)(C)CC(=O)O
IC50 [7]: 682 nM

CC(C)(C#Cc1ccc(N2CCOc3ncnc(N)c3C2=O)cc1C(F)(F)F)CC(=O)O
IC50 [7]: 24 nM

CC(C)(C#Cc1ccc(N2CCOc3ncnc(N)c3C2=O)cc1F)CC(=O)O
IC50 [7]: 58 nM

CC(C)(C#Cc1ccc(N2CCOc3ncnc(N)c3C2=O)cc1Cl)CC(=O)O
IC50 [7]: 26 nM

Cc1cc(C#CC(C)(C)CC(=O)O)ccc1N1CCOc2ncnc(N)c2C1=O
IC50 [7]: 3760 nM
